This is an account of results in ChEMBL document CHEMBL3352551, “Synthesis and biological evaluation of novel allosteric enhancers of the A1 adenosine receptor based on 2-amino-3-(4'-chlorobenzoyl)-4-substituted-5-arylethynyl thiophene” (J Med Chem, 2014).

Molecules are shown by their SMILES. The source made the active and inactive calls. The calls are words filed in the database; no cut-off is given here.

Assay [1] addresses T1, Adenosine receptor A1 (Homo sapiens) (UniProt P30542).
T1 sequence (whole entry): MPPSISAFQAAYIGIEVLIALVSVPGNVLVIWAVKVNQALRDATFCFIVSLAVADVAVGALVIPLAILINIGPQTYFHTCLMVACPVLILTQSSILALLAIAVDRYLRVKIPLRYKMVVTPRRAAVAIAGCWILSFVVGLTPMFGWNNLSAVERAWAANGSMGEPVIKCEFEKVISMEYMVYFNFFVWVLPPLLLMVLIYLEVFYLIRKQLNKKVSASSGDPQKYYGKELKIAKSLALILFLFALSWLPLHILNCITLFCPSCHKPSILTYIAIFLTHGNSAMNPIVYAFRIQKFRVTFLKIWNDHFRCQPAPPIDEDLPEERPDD
As to the kind of experiment: Displacement of [3H]DPCPX from human adenosine A1 receptor expressed in CHO cell membranes at 10 uM.

Assay [2] deals with T1, Adenosine receptor A1 (Homo sapiens). As to the kind of experiment: Allosteric enhancer activity at human adenosine A1 receptor expressed in CHO cell membranes assessed as slowing of [3H]NECA dissociation rate level at 1 uM. The class given is cell-based.
Assay [3] shares this target. As to the kind of experiment: Allosteric enhancer activity at human adenosine A1 receptor expressed in CHO cell membranes assessed as [3H]NECA association rate at 1 uM (reference value: 0.0183 +/- 0.0008 /nM/min). The class given is cell-based.
Assay [4] shares this target. As to the kind of experiment: Allosteric enhancer activity at human adenosine A1 receptor expressed in CHO cells assessed as inhibition of forskolin-induced cAMP production at 10 uM. The class given is functional, cell-based. In general terms: cAMP levels reflect the balance of adenylyl cyclase and phosphodiesterase activity.
For assay [5] the target is unchanged. In words: Allosteric enhancer activity at human adenosine A1 receptor expressed in CHO cell membranes assessed as shift in [3H]CCPA Kd level at 10 uM by saturation binding assay.
For assay [6] the target is unchanged. As to the kind of experiment: Allosteric enhancer activity at human adenosine A1 receptor expressed in CHO cell membranes assessed as [3H]NECA dissociation rate at 1 uM (reference value: 0.0159 +/- 0.0004 /min). Type of assay: cell-based.
For assay [7] the target is unchanged. As to the kind of experiment: Allosteric enhancer activity at human adenosine A1 receptor expressed in CHO cells assessed as inhibition of forskolin-induced cAMP production at 100 nM in presence of 1 pM CCPA. Type of assay: functional, cell-based.
For assay [8] the target is unchanged. As to the kind of experiment: Allosteric enhancer activity at human adenosine A1 receptor expressed in CHO cell membranes assessed as shift in [3H}NECA binding affinity level at 1 uM.
Assay [9] addresses T2, Adenosine receptor A3 (Homo sapiens) (UniProt P0DMS8).
T2 sequence (whole entry): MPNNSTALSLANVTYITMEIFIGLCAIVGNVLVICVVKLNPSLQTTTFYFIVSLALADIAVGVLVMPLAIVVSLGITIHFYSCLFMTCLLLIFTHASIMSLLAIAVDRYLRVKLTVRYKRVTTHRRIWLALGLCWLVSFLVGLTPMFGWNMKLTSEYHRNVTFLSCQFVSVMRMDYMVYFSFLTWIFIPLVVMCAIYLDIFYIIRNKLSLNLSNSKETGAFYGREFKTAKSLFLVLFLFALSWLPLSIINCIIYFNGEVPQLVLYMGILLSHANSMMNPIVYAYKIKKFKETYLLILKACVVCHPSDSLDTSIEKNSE
In words: Displacement of [3H]MRE-3008-F20 from human adenosine 3 receptor expressed in CHO cell membranes at 10 uM.

Assay [10] concerns the target T1, Adenosine receptor A1 (Homo sapiens). In words: Allosteric enhancer activity at human adenosine A1 receptor expressed in CHO cell membranes assessed as shift in [3H]CCPA Bmax level at 10 uM by saturation binding assay.
The target of assay [11] is Adenosine receptor A2a (Homo sapiens) (UniProt P29274). In words: Displacement of [3H]ZM241385 from human adenosine A2A receptor expressed in CHO cell membranes at 10 uM. In general terms: Displacement assays read how much labelled ligand stays bound in the presence of the test substance.
The target of assay [12] is T1, Adenosine receptor A1 (Homo sapiens). As to the kind of experiment: Allosteric enhancer activity at human adenosine A1 receptor expressed in CHO cell membranes assessed as shift in CCPA binding Ki level at 10 uM by [3H]DPCPX competition binding assay.
The target in assay [13] is T3, Adenosine receptor A1 (Rattus norvegicus, UniProt P25099).
T3 sequence (P25099 whole entry): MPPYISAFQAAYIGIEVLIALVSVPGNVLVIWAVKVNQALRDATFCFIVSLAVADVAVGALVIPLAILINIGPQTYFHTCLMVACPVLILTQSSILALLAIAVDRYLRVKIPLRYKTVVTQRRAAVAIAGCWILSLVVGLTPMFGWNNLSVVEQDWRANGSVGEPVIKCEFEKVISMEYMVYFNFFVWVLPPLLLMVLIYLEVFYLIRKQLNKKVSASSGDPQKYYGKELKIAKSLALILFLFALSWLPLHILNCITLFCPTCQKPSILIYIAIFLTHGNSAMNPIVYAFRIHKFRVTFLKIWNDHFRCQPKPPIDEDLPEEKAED
As to the kind of experiment: Displacement of [3H]DPCPX from adenosine A1 receptor in rat membranes. The class given is cell membranes.

Chain of Adenosine receptor A2a (Homo sapiens) (P29274 whole entry): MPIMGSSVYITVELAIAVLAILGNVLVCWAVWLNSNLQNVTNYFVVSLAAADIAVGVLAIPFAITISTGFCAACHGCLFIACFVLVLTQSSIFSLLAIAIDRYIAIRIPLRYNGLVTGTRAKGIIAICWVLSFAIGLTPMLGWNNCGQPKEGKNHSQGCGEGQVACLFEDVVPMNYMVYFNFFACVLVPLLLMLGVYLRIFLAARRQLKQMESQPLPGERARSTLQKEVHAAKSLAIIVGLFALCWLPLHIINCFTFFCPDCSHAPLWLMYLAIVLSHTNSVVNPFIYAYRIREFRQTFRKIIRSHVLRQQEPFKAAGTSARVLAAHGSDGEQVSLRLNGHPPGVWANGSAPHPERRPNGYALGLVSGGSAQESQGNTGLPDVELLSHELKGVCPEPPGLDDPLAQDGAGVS

Usually inhibition stands for the change of the read-out against control, counted positive when it falls. As for `CC(C)(C)Cc1c(C#Cc2ccccc2)sc(N)c1C(=O)c1ccc(Cl)cc1`, the inhibition in [1] is under 15%; in [4], 75%; in assay [7], 77%; in [9] it was under 15%; in [11], under 15%. Also, the fold change (FC) in assay [2] came out at 2.1; in [8], 1.9; in [10], 9.5; in [12] it was 9.9. For the same compound, the results for the K in [3] and in assay [6] were 273000 M⁻¹ s⁻¹ and 0.0076 min⁻¹, respectively. For the same compound, the result in assay [5] was inactive.
For the compound `COc1ccc(C#Cc2sc(N)c(C(=O)c3ccc(Cl)cc3)c2CC(C)(C)C)cc1`, the inhibition in [1] is under 15%; in assay [4] it was 71%; in assay [7], 79%; in assay [9], under 15%; in assay [11], under 15%. The result in assay [5] was inactive. For the same compound, the fold change (FC) is 7.4 in assay [10] and 8.2 in assay [12].
In the case of `CCCCCC#Cc1sc(N)c(C(=O)c2ccc(Cl)cc2)c1CC(C)(C)C`, the inhibition in [1] is under 15%; in [4], 66%; in assay [7], 69%; in assay [9] it was under 15%; in [11] it was under 15%. Further, in assay [5], the result was inactive. Besides, the figures for the fold change (FC) in [10] and in assay [12] were 6.3 and 4.1, respectively.
`CCCCCc1ccc(C#Cc2sc(N)c(C(=O)c3ccc(Cl)cc3)c2CC(C)(C)C)cc1`: the inhibition was under 15% in [1]; 60% in [4]; 62% in assay [7]; under 15% in assay [9]; under 15% in [11]. Further, the fold change (FC) worked out at 5.5 in assay [10] and 3.7 in assay [12].
With `Nc1sc(C#Cc2ccccc2)c(CN2CCN(c3ccc(C(F)(F)F)cc3)CC2)c1C(=O)c1ccc(Cl)cc1`, the inhibition in assay [1] is under 15%; in [4], 31%; in assay [7], 33%; in [9] it was under 15%; in assay [11], under 15%. For the same compound, the fold change (FC) in assay [10] stood at 2.9; in assay [12], 3.
What is called Ki is the equilibrium dissociation constant of an inhibitor or competing ligand from its target. A low value points to tighter binding. Turning to `Cc1sc(N)c(C(=O)c2cccc(C(F)(F)F)c2)c1C`, the inhibition result in assay [1] and in assay [11] was “inactive” in each case. The figures for the K in assay [3] and in [6] were 318000 M⁻¹ s⁻¹ and 0.0143 min⁻¹, respectively. In [5], the result was inactive. Moreover, the Ki in assay [13] is 11 µM. Further, the fold change (FC) amounted to 1.2 in assay [8], 1.3 in assay [10] and 1.3 in assay [12].
`CC(C)(C)Cc1c(CCc2ccccc2)sc(N)c1C(=O)c1ccc(Cl)cc1`: the inhibition is under 15% in [1]; 40% in assay [4]; 41% in [7]; under 15% in assay [9]; under 15% in assay [11]. The fold change (FC) in assay [10] came out at 3.3; in assay [12], 3.5.
